Test results as given in patent publication US6774121B1, “Phospholipid prodrugs of anti-proliferative drugs” (D-Pharm, Ltd., priority 1999, dated 2004).
Where “and” joins values, the source holds several entries; their conditions need not be identical. Identical values can stand only once. Like-named read-outs stand apart in the source and are kept apart here.

What was measured:
CEM = assay: MTT cytotoxicity on tumor cell lines, CEM (Example 8); format: cell-based; details: CCRF-CEM, T-cell ALL (human), 72 hours
Method: (§1) Cell viability was analyzed after 72 hours incubation (37° C., 5% CO2) using the colorimetric MTT assay (Mosmann (1983) J. Immunol Methods 65: 55-63).

[1] = tested on: MTX-resistant mutant cells, CEM-MTX; assay: MTT cytotoxicity with and without Leucovorin, CEM-MTX cells (Example 6); format: cell-based; details: Homo sapiens, 72 hours
Method: Leucovorin is a reduced folate, used in chemotherapy with high doses of methotrexate for ‘rescue’ of host from toxicity.
Wild type human leukemia CEM cells or the MTX-resistant mutant cells, CEM-MTX, were plated into 96 well plates containing RPMI, 10% FCS at a concentration of 5×10^4 cells/ml. […] Leucovorin, at a final concentration of 10 μM, was added to some of the plates as indicated. The plates were incubated for 72 hours (37° C., 5% CO2) before being assayed for viability using the colorimetric MTT assay (Mosmann (1983) J. Immunol Methods 65: 55-63).

L1210 = assay: MTT cytotoxicity on tumor cell lines, L1210 (Example 8); format: cell-based; details: L1210, lymphocytic leukemia (mouse), 72 hours
Method: as §1

N87 = assay: MTT cytotoxicity on tumor cell lines, N87 (Example 8); format: cell-based; details: N87, Gastric carcinoma (human), 72 hours
Method: as §1

L1210 cells = assay: Survival of pre-treated mice after L1210 tumor cell implantation; format: in vivo, mouse; details: pre-treatment 3 mg/Kg or equivalent i.p. every other day for 21 days
Method: Protection against tumor growth was examined in mice pretreated with MTX or DP-MTX-71.
At the end of this regimen, the mice were injected with 1×10^6 L1210 cells into the peritoneum. The animals were then monitored for viability for 12 days subsequent to the injection of the tumor cells.

Work on CN(Cc1cnc2nc(N)nc(N)c2n1)c1ccc(C(=O)N[C@@H](CCC(=O)O)C(=O)O)cc1 [MTX, Methotrexate] yielded an EC50 (CEM) of 0.021 µM, an EC50 ([1]; 10 μM Leucovorin, read-out: EC50, nMol + 10 μM Leucovorin) of 20 ± 12.8 µM and an EC50 ([1]; read-out: EC50, nMol No Leucovorin) of 2.54 ± 0.224 µM. The EC50 (L1210) was 0.013 µM, the EC50 (N87) was 13.5 µM and the Surviving mice (L1210 cells; 9 days after tumor implantation) was 6/6. For the same compound, the Surviving mice (L1210 cells; 10 days after tumor implantation) was 4/6, the Surviving mice (L1210 cells; 11 days after tumor implantation) was 3/6 and the Surviving mice (L1210 cells; 12 days after tumor implantation) was 2 and 2/6.
